# Results reported in PubChem BioAssay (NCI).
# “And” between values parts separate entries of the source, which are not always exact repeats. Equal entries are not always repeated.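 All cell lines were grown in 96-well plates and treated with compound for 48 hours. GI50 marks 50% less growth. TGI denotes the concentration required for complete inhibition of growth.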
# How the values were obtained:
# Test in all cases: growth of human tumour cells (NCI), 48 h
# A549 NSCLC = test system: A549 NSCLC
# CAKI-1 renal = test system: CAKI-1 renal
# COLO 205 colon = test system: COLO 205 colon
# HCT-15 colon = test system: HCT-15 colon
# HOP-92 NSCLC = test system: HOP-92 NSCLC
# HT29 colon = test system: HT29 colon
# RPMI-8226 leukemia = test system: RPMI-8226 leukemia
# SF-295 CNS = test system: SF-295 CNS
# SF-539 CNS = test system: SF-539 CNS
# SK-OV-3 ovarian = test system: SK-OV-3 ovarian
Compound,GI50 (A549 NSCLC),TGI (A549 NSCLC),GI50 (CAKI-1 renal),TGI (CAKI-1 renal),GI50 (COLO 205 colon),TGI (COLO 205 colon),GI50 (HCT-15 colon),TGI (HCT-15 colon),GI50 (HOP-92 NSCLC),TGI (HOP-92 NSCLC),GI50 (HT29 colon),TGI (HT29 colon),GI50 (RPMI-8226 leukemia),TGI (RPMI-8226 leukemia),GI50 (SF-295 CNS),TGI (SF-295 CNS),GI50 (SF-539 CNS),TGI (SF-539 CNS),GI50 (SK-OV-3 ovarian),TGI (SK-OV-3 ovarian)
O=C1/C(=C\c2ccccc2)CN(C(=O)c2ccccc2F)C/C1=C\c1ccccc1,3.2 µM,12 µM,3.4 µM,12.8 µM,2.05 µM,4.03 µM,1.88 µM,4.11 µM,3.18 µM,14.2 µM,1.48 µM,4.17 µM,0.125 µM,0.72 µM,2.24 µM,5.77 µM,2 µM,4.12 µM,2.4 µM,5.34 µM
C#CCSc1nnnn1-c1ccc(Br)c(C)c1,38 µM,> 100 µM,2.82 µM,17.6 µM,27.2 µM,84.3 µM,29 µM,> 100 µM,14.5 µM,74.5 µM,30.3 µM,96 µM,22.5 µM,74 µM,29.5 µM,> 100 µM,18.1 µM,36.5 µM,30 µM,> 100 µM
OCCC#Cc1ccccc1C#Cc1ccccc1,36.3 µM,83.2 µM,12.6 µM,25.2 µM,19.4 µM,38 µM,11.6 µM,24.8 µM,3.48 µM,16.7 µM,18 µM,> 100 µM,12.4 µM,41.8 µM,5.47 µM,19.8 µM,12.7 µM,27 µM,17.3 µM,39.4 µM
COc1cc(-c2cn(-c3ccc(Cl)cc3)c(=O)n2-c2ccccc2)cc(OC)c1OC,> 46.6 µM,> 100 µM,> 100 µM,> 100 µM,51 µM,> 100 µM,> 100 µM,> 100 µM,24.1 µM,> 88.5 µM,56.3 µM,> 100 µM,> 35.4 µM,> 100 µM,55.7 µM,> 100 µM,61.5 µM,> 100 µM,74.9 µM,> 100 µM
Nc1cc2c3c(cccc3c1)C(=O)N(CCN1CCN(CCN3C(=O)c4cccc5cc(N)cc(c45)C3=O)CC1)C2=O,,> 100 µM,,> 100 µM,,> 100 µM,,> 100 µM,,> 100 µM,,> 100 µM,,> 100 µM,,> 100 µM,,> 100 µM,,> 100 µM
COc1ccc2c(c1)C(=O)/C(=C/c1ccc(OCC(=O)c3ccc(Cl)cc3)cc1)O2,31.4 µM,> 100 µM,16.4 µM,90.1 µM,4.64 µM,18 µM,12.6 µM,26.3 µM,15.7 µM,37.1 µM,20.1 µM,40.7 µM,3.87 µM,21.6 µM,30.9 µM,> 100 µM,17.9 µM,34.8 µM,62.5 µM,> 100 µM
CCOC(=O)/C(=C/c1c(-c2ccccc2)[nH]c2ccccc12)C(=O)c1ccc(Cl)cc1,4.61 µM,> 100 µM,4.12 µM,> 100 µM,1.98 µM,4.36 µM,4.06 µM,> 100 µM,1.93 µM,15 µM,3.96 µM,> 100 µM,2.92 µM,> 100 µM,4.2 µM,> 100 µM,4.23 µM,> 100 µM,4.38 µM,> 100 µM
Nc1ccc(C(=O)O)c2[nH]c3ccccc3c(=O)c12,,> 100 µM,,> 100 µM,,> 100 µM,,> 100 µM,,> 100 µM,,> 100 µM,,> 100 µM,,> 100 µM,,> 100 µM,,> 100 µM
CCN=C(N)CSS(=O)(=O)O,,> 100 µM,,> 100 µM,,> 100 µM,,> 100 µM,,> 100 µM,,> 100 µM,,> 100 µM,,> 100 µM,,> 100 µM,,> 100 µM
c1ccc(CNc2nc(Nc3ccc(-c4nc5ccccc5[nH]4)cc3)c3cn[nH]c3n2)cc1,2.89 µM,8.92 µM,2.13 µM,5.47 µM,1.78 µM,3.72 µM,1.89 µM,7.65 µM,1.99 µM,5.56 µM,2.09 µM,5.57 µM,2.15 µM,5.51 µM,1.7 µM,3.84 µM,2 µM,5.19 µM,3.97 µM,17.8 µM
COc1cc2c(c(Br)c1N)-c1cc(Br)c(N)cc1C2=O,> 89.9 µM,> 100 µM,> 100 µM,> 100 µM,> 87 µM,> 100 µM,> 100 µM,> 100 µM,2.98 µM,> 100 µM,> 100 µM,> 100 µM,> 100 µM,> 100 µM,> 100 µM,> 100 µM,4.93 µM,> 100 µM,11.3 µM,> 73.5 µM
Cc1ccc(C)c(NC(=O)CCC(=O)CC(=O)C(C)(C)C)c1,,> 100 µM,,> 100 µM,,> 100 µM,,> 100 µM,,> 100 µM,,> 100 µM,,> 100 µM,,,,> 100 µM,,> 100 µM
O=C(Nc1ccc(Cl)cc1)C(=O)C1=C(O)c2ccccc2OC1,,> 100 µM,,> 100 µM,,> 100 µM,,> 100 µM,,> 100 µM,,> 100 µM,,> 100 µM,,> 100 µM,,> 100 µM,,> 100 µM
NCCCNCCCNc1nc2ccccc2c2[nH]c3ccccc3c12,0.0509 µM,4.05 µM,0.458 µM,2.31 µM,0.182 µM,2.12 µM,0.307 µM,4.95 µM,0.173 µM,0.747 µM,0.0482 µM,1.86 µM,0.343 µM,3.51 µM,0.0664 µM,1.61 µM,0.156 µM,1.55 µM,0.743 µM and 0.322 µM,4.14 µM and 3.42 µM
C=C1C(=O)C23C(O)C1CCC2C12CO[C@]3(O)[C@@H](O)C1C(C)(C)CCC2O (some centres undefined),,34.6 µM,,28.5 µM,,7.87 µM,,26.4 µM,,8.99 µM,,30.3 µM,,> 100 µM,,30.6 µM,,28.2 µM,,34.5 µM
